pKi: −log10 of the molar value. Where two headings read alike, the source gives them in different places.
Experiments:
steroid 5α-reductase = details: cited from earlier work; for Reversible / Irreversible inhibition: Table 1, in words beside Ki; for pKi: Table 1, literature references
[1] = biological target: T1, Human Prostatic Steroid 5α-Reductase (Homo sapiens, UniProt P31213); test: Inhibition of human steroid 5α-reductase using tissue from hyperplastic human prostates ([14C]-testosterone conversion, Dixon analysis); assay type: biochemical
T1 construct: Prostatic particles were obtained by differential centrifugation; from tissue; host or cells: frozen human prostates (hyperplastic), 140,000 × g particulate fraction
T1 sequence (P31213 1-254): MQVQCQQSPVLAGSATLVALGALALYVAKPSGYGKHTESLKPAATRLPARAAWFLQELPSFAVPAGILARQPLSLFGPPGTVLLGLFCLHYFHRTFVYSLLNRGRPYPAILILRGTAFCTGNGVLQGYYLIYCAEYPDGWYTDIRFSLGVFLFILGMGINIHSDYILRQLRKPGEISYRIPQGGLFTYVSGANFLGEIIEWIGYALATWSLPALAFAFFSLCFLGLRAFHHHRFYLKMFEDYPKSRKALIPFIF
Protocol: Such diseases and conditions include acne vulgaris, seborrhea, female hirsutism, prostate diseases such as benign prostatic hypertrophy, and male pattern baldness. several compounds of the invention were tested for potency in inhibiting human steroid 5α-reductase using tissue from hyperplastic human prostates. In determining potency in inhibiting the human enzyme, the following procedure was employed:
Frozen human prostates were thawed and minced into small pieces (5 mm^3). The tissue was homogenized in 3 to 5 volumes of 20 mM potassium phosphate, pH 6.5, buffer containing 0.33 M sucrose, 1 mM dithiothreitol, and 50 μM NADPH with a Brinkmann Polytron (Sybron Corporation, Westbury, N.Y.). The solution was subjected to sonication for 3 to 5 minutes with a Sonifier (Branson Sonic Power Co.) followed by hand homogenization in a glass-to-glass Dounce homogenizer (Kontes Glass Company, Vineland, N.J.).
Prostatic particles were obtained by differential centrifugation at 600 to 1000 × g for 20 minutes and 140,000 × g for 60 minutes at 4° C. The pellet obtained from the 140,000 × g centrifugation was washed with 5 to 10 tissue volumes of the buffer described above and recentrifuged at 140,000 × g. The resulting pellet was suspended in 20 mM potassium phosphate buffer, pH 6 5, containing 20% glycerol, 1 mM dithiothreitol, and 50 μM NADPH. The suspended particulate solution was stored at -80° C.
A constant amount of [^14 C]-testosterone (52 to 55 mCi/mmol, New England Nuclear, Boston, Mass.) in ethanol and varying amounts of the potential inhibitor in ethanol were deposited in test tubes and concentrated to dryness in a SAVANT Speed Vac. To each tube was added buffer, 20 μl of 10 mM NADPH and an aliquot of prostatic particulate solution to a final volume of 1.0 ml of 50 mM sodium citrate, pH 5.0. After incubating the solution at 37° C. for 20 to 30 minutes the reaction was quenched by the addition of 4 ml ethyl acetate and 0.25 μmol each of testosterone, dihydrotestosterone, androst-aneidiol, and androst-anedione as carriers. The organic layer was removed to a second test tube and evaporated to dryness in a Speed Vac. The residue was dissolved in 20 to 30 μl chloroform, spotted on an individual lane of a 20×20 cm prechannelled silica gel TLC plate (Si 250F-PA, Baker Chemical) and developed twice with acetone:chloroform (1:9). The radiochemical content in the bands of the substrate and the products was determined with a BIOSCAN Imaging Scanner (Bioscan, Inc., Washington, D.C.). The percent of recovered radiolabel converted to product was calculated, from which enzyme activity was determined. All incubations were conducted such that no more than 12% of the substrate (testosterone) was consumed.
The experimentally obtained data was computer fitted to a linear function by plotting the reciprocal of the enzyme activity (1/velocity) against the variable inhibitor concentration (Dixon, M. (1953), Biochem. J., 55, 170). Assuming that the steroidal inhibitor is a competitive inhibitor against testosterone, a value for the inhibition constant (Ki) can be calculated from equation 1:
Ki =(B/A)/(S/Km +1) Equation 1

[2] = tested on: human steroid 5α-reductase; details: read-out: Km (Michaelis-Menton constant of the substrate); testosterone as substrate
Excerpt: where B is the intercept on the 1/velocity axis, A is the slope of the line, S is the concentration of substrate (testosterone) used in the experiment, and Km is the Michaelis-Menton constant of the substrate (testosterone)

[3] = human prostatic particulate, pH 5.0, 37° C., 20 to 30 minutes, competitive inhibition against testosterone assumed, read-out: Ki , app

Row | SMILES | Reversible / Irreversible inhibition (steroid 5α-reductase) | pKi (steroid 5α-reductase) | pKi [1, 3] | also measured
1 | C[C@]12CC[C@H]3[C@@H](CCC4=CC(=O)CC[C@@]43C)[C@@H]1CC[C@@H]2C(=O)O | Reversible | 5.96 | – | –
2 | CC(=O)[C@H]1CC[C@H]2[C@@H]3CC=C=CC(=O)CCC(=O)[C@H]3CC[C@]12C | Irreversible | 6.00 | – | –
3 | CC(CO)[C@H]1CC[C@H]2[C@@H]3CC[C@H]4C(=[N+]=[N-])C(=O)CC[C@]4(C)[C@H]3CC[C@]12C (some centres unmarked) | Irreversible | 8.46 | – | time dependence of inhibition (in words) (steroid 5α-reductase; literature): potent, time-dependent inhibitor
4 | CC(C)N(C(=O)[C@H]1CC[C@H]2[C@@H]3CC=C4C=C([PH](=O)O)CC[C@]4(C)[C@H]3CC[C@]12C)C(C)C [Example 1, 17β-N,N-Diisopropylcarboxamido-androst-3,5-diene-3-phosphinic acid] | – | – | 8.15 | –
5 | CC(C)(C)NC(=O)[C@H]1CC[C@H]2[C@@H]3CC=C4C=C([PH](=O)O)CC[C@]4(C)[C@H]3CC[C@]12C [Example 2, 17β-N-t-Butylcarboxamide-androst-3,5-diene-3-phosphinic acid] | – | – | 7.46 | –
6 | CC(C)N(C(=O)[C@H]1CC[C@H]2[C@@H]3CC[C@H]4CC([PH](=O)O)=CC[C@]4(C)[C@H]3CC[C@]12C)C(C)C [Example 3, 17β-N,N-Diisopropylcarboxamide-5α-androst-2-ene-3-phosphinic Acid] | – | – | – | pKi [1]: 7.82
7 | CC(C)N(C(=O)[C@H]1CC[C@H]2[C@@H]3CC[C@H]4C=C([PH](=O)O)CC[C@]4(C)[C@H]3CC[C@]12C)C(C)C [Example 5, 17β-N,N-Diisopropylcarboxamido-5α-androst-3-ene-3-phosphinic acid] | – | – | 7.60 | –
8 | CC(C)N(C(=O)[C@H]1CC[C@H]2[C@@H]3CCC4=CC([PH](=O)O)=CC[C@]4(C)[C@H]3CC[C@]12C)C(C)C [Example 7, 7β-N,N-Diisopropylcarboxamido-androst-2,4-diene-3-phosphinic acid] | – | – | – | pKi [1]: 7.70
9 | CC(C)N(C(=O)[C@H]1CC[C@H]2[C@@H]3CC=C4C=C(P(C)(=O)O)CC[C@]4(C)[C@H]3CC[C@]12C)C(C)C [Example 9, 17β-N,N-diisopropylcarboxamido-androst-3,5-diene-3-methylphosphinic acid] | – | – | 7.26 | –
10 | C[C@]12CC[C@H]3[C@@H](CCC4=CC(=O)CC[C@@]43C)[C@@H]1CC[C@@H]2O [testosterone] | – | – | – | Km [2]: 4.5 µM
